As usually defined, the Ki is a dissociation constant, usually derived from enzyme kinetics or from competition with a known ligand. A high value points to weaker binding.

Chain of LRRK2 (Q5S007 970-2527 G2019S): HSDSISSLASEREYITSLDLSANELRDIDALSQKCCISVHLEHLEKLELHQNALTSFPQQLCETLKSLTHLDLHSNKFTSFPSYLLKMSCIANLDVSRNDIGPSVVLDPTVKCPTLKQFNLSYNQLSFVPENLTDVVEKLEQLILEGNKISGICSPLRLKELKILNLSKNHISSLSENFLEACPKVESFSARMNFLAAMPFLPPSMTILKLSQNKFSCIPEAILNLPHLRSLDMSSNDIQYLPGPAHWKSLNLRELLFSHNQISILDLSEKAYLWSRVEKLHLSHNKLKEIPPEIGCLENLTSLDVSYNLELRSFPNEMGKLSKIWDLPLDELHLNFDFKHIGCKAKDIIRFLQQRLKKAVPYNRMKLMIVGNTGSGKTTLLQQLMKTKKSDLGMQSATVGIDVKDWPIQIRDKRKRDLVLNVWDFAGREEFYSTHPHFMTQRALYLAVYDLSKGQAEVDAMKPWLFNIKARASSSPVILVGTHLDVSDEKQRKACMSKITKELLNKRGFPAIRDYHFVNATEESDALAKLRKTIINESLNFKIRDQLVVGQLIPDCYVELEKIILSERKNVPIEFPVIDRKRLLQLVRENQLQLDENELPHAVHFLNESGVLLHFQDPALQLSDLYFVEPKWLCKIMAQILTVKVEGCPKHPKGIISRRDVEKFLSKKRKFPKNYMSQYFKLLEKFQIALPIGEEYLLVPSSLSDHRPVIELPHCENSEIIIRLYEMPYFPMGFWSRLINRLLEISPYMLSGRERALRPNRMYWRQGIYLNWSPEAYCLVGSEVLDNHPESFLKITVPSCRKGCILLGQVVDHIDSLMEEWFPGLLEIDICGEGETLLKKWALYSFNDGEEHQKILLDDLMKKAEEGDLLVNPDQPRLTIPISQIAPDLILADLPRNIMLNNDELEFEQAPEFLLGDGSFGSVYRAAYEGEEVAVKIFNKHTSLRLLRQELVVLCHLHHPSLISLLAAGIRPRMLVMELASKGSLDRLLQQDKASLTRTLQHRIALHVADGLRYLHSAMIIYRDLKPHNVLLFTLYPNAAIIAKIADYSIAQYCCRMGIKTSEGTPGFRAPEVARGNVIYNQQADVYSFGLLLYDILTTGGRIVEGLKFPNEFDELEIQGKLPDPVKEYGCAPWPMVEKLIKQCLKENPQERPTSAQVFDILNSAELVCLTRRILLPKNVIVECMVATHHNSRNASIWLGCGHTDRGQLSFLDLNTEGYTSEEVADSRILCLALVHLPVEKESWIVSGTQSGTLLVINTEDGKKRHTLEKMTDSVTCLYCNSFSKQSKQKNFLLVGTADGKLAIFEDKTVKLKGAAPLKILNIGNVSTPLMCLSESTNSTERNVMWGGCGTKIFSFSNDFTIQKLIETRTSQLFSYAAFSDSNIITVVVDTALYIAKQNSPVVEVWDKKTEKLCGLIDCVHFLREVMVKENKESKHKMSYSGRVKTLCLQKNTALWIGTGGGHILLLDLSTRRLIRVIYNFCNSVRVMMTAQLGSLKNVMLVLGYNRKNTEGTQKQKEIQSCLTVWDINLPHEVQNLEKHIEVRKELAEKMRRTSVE

This test has as its target LRRK2 (Homo sapiens (Human), UniProt Q5S007, G2019S). Nature of the test: In Vitro LRRK2 LabChip Assay (LRRK2 Ki). The format is biochemical. As to the method:
In Vitro LRRK2 LabChip Assay This assay was used to determine a compound's potency in inhibiting activity of LRRK2 by determining, Kiapp, IC50, or percent inhibition values. In a polypropylene plate, LRRK2, fluorescently-labeled peptide substrate, ATP and test compound were incubated together. Using a LabChip 3000 (Caliper Life Sciences), after the reaction the substrate was separated by capillary electrophoresis into two populations: phosphorylated and unphosphorylated. The relative amounts of each were quantitated by fluorescence intensity. LRRK2 Ki was determined according to the equation: […]))). Ki values in Table 4 and elsewhere herein are shown in μM. […] Substrate: 5[…] Non-binding plate: 384 well clear V-bottom polypropylene plates (Greiner cat #781280). ATP: 10 mM ATP (Cell Signaling cat #9804). Triton X-100: Triton X-100. Brij-35: Brij-35 (Pierce cat #20150). […] DMSO: DMSO (Sigma cat #34869-100 ML). […] Compound Plate Preparation: For serial dilutions, 34.6 μl DMSO was added to columns 3-24. For the assay controls, 37.5 μl DMSO was added to columns 1 and 2 of rows A and […]-028831 (Staurosporine) was added to columns 1 and 2, row B. […] A Precision instrument was used to perform 1:3.16 serial dilutions (“PLK_BM_serial_halflog”). ATP Preparation: ATP was diluted to 282.1 μM in Complete Kinase Buffer (final concentration was 130 μM). […] Assay Procedure: To a 50 μl polypropylene plate, 5 μl/well buffer/substrate was added by hand to Blank wells. A Biomek FX was used to start the kinase reaction (“PLK SAR 23 ATP”). […] 5 μl/well kinase/substrate in Assay Plate; The plate was incubated for 2 hours in the dark. Biomek FX was used to stop the kinase reaction (“PLK Stop”), and 10 μl/well Stop solution was added to the Assay Plate.
Regarding `CNc1nc(Nc2cc(OC)c(-c3c(C)nn(C)c3C)cc2Cl)ncc1C(F)(F)F` [Compound 24, N^2-(2-chloro-5-methoxy-4-(1,3,5-trimethyl-1H-pyrazol-4-yl)phenyl)-N^4-methyl-5-(trifluoromethyl) pyrimidine-2,4-diamine], the affinity, expressed as Ki, was 3 nM.
In turn, `CNc1nc(Nc2cc(F)c(-n3nnnc3C)cc2OC)ncc1C(F)(F)F` [Compound 42, N2-(5-fluoro-2-methoxy-4-(5-methyl-1H-tetrazol-1-yl)phenyl)-N4-methyl-5-(trifluoromethyl) pyrimidine-2,4-diamine] gave a Ki of 3 nM.
In turn, `CNc1nc(Nc2cc(OC)c(-c3nc(C)no3)cc2Cl)ncc1Cl` [Compound 36, 5-chloro-N^2-(2-chloro-5-methoxy-4-(3-methyl-1,2,4-oxadiazol-5-yl)phenyl)-N^4-methylpyrimidine-2,4-diamine] registered a Ki of 44 nM.
As for `CNc1nc(Nc2cc(F)c(-n3nc(C)cc3COC)cc2OC)ncc1C(F)(F)F` [Compound 47, N2-(5-fluoro-2-methoxy-4-(5-(methoxymethyl)-3-methyl-1H-pyrazol-1-yl)phenyl)-N4-methyl-5-(trifluoromethyl) pyrimidine-2,4-diamine], the figure is 5 nM; as for `CNc1nc(Nc2cc(OC)c(-c3cnnn3C)cc2Cl)ncc1C(F)(F)F` [Compound 11, N^2-(2-chloro-5-methoxy-4-(1-methyl-1H-1,2,3-triazol-5-yl)phenyl)-N^4-methyl-5-(trifluoromethyl) pyrimidine-2,4-diamine], 4 nM.
To `CNc1nc(Nc2ccc(-c3nnc(C)o3)cc2Cl)ncc1Cl` [Compound 33, 5-chloro-N^2-(2-chloro-4-(5-methyl-1,3,4-oxadiazol-2-yl)phenyl)-N^4-methylpyrimidine-2,4-diamine] belongs 30 nM; to `CNc1nc(Nc2ccc(-c3nnn(C)n3)cc2Cl)ncc1C(F)(F)F` [Compound 3, N2-(2-chloro-4-(2-methyl-2H-tetrazol-5-yl)phenyl)-N4-methyl-5-(trifluoromethyl) pyrimidine-2,4-diamine], 18 nM; to `CNc1nc(Nc2ccc(-c3cncn3C)cc2OC)ncc1Cl` [Compound 16, 5-chloro-N2-(2-methoxy-4-(1-methyl-1H-imidazol-5-yl)phenyl)-N4-methylpyrimidine-2,4-diamine], 2 nM.
Molecule `CNc1nc(Nc2cc(OC)c(-c3nccn3C)cc2Cl)ncc1C(F)(F)F` [Compound 19, N^2-(2-chloro-5-methoxy-4-(1-methyl-1H-imidazol-2-yl)phenyl)-N^4-methyl-5-(trifluoromethyl) pyrimidine-2,4-diamine] gave a Ki of 3 nM.
To `CNc1nc(Nc2ccc(-c3cnn(C)c3)cc2OC)ncc1Cl` [Compound 35, 5-chloro-N^2-(2-methoxy-4-(1-methyl-1H-pyrazol-4-yl)phenyl)-N^4-methylpyrimidine-2,4-diamine] belongs 2 nM; to `CNc1nc(Nc2cc(OC)c(-c3cnn(C)c3)cc2Cl)ncc1C(F)(F)F` [Compound 32, N^2-(2-chloro-5-methoxy-4-(1-methyl-1H-pyrazol-4-yl)phenyl)-N^4-methyl-5-(trifluoromethyl) pyrimidine-2,4-diamine], 11 nM; to `CCNc1nc(Nc2cc(F)c(-c3nnc(C)o3)cc2OC)ncc1C(F)(F)F` [Compound 29, N^4-ethyl-N^2-(5-fluoro-2-methoxy-4-(5-methyl-1,3,4-oxadiazol-2-yl)phenyl)-5-(trifluoromethyl) pyrimidine-2,4-diamine], 7 nM.
`CNc1nc(Nc2ccc(-c3nnn(C)n3)cc2OC)ncc1C(F)(F)F` [Compound 18, N^2-(2-methoxy-4-(2-methyl-2H-tetrazol-5-yl)phenyl)-N^4-methyl-5-(trifluoromethyl) pyrimidine-2,4-diamine] registered a Ki of 10 nM.
Turning to `CNc1nc(Nc2cc(OC)c(-c3nnc(C)o3)cc2Cl)ncc1Cl` [Compound 37, 5-chloro-N^2-(2-chloro-5-methoxy-4-(5-methyl-1,3,4-oxadiazol-2-yl)phenyl)-N^4-methylpyrimidine-2,4-diamine], the Ki came to 12 nM.
`CNc1nc(Nc2ccc(-c3cncn3C)cc2OC)ncc1C(F)(F)F` [Compound 8] had a Ki of 2 nM.
In turn, `CNc1nc(Nc2cc(OC)c(-c3nc(C)no3)cc2Cl)ncc1C(F)(F)F` [Compound 31, N^2-(2-chloro-5-methoxy-4-(3-methyl-1,2,4-oxadiazol-5-yl)phenyl)-N^4-methyl-5-(trifluoromethyl) pyrimidine-2,4-diamine] had a Ki of 41 nM.
For the molecule `CNc1nc(Nc2cc(F)c(-c3nnnn3C)cc2OC)ncc1C(F)(F)F` [Compound 22, N^2-(5-fluoro-2-methoxy-4-(1-methyl-1H-tetrazol-5-yl)phenyl)-N^4-methyl-5-(trifluoromethyl) pyrimidine-2,4-diamine], affinity was put at a Ki of 10 nM. This Ki is about 4.1-fold lower than that of the molecule before.
As to `CNc1nc(Nc2ccc(-c3nnn[nH]3)cc2Cl)ncc1C(F)(F)F` [Compound 1, N2-(2-chloro-4-(2H-tetrazol-5-yl)phenyl)-N4-methyl-5-(trifluoromethyl) pyrimidine-2,4-diamine], affinity was put at a Ki of 3 nM.
Take `CNc1nc(Nc2ccc(-c3cnoc3)cc2OC)ncc1Cl` [Compound 14, 5-chloro-N^2-(4-(isoxazol-4-yl)-2-methoxyphenyl)-N^4-methylpyrimidine-2,4-diamine]: the inhibition constant Ki was 15 nM.
As for `CNc1nc(Nc2ccc(-c3cnnn3C)cc2OC)ncc1C(F)(F)F` [Compound 17, N^2-(2-methoxy-4-(1-methyl-1H-1,2,3-triazol-5-yl)phenyl)-N^4-methyl-5-(trifluoromethyl) pyrimidine-2,4-diamine], the inhibition constant Ki is 2 nM.
Molecule `CNc1nc(Nc2ccc(-c3nnnn3C)cc2OC)ncc1Cl` [Compound 10, 5-chloro-N^2-(2-methoxy-4-(1-methyl-1H-tetrazol-5-yl)phenyl)-N^4-methylpyrimidine-2,4-diamine] showed a Ki of 7 nM.
Molecule `CNc1nc(Nc2ccc(-c3cnnn3C)cc2OC)ncc1Cl` [Compound 23, 5-chloro-N^2-(2-methoxy-4-(1-methyl-1H-1,2,3-triazol-5-yl)phenyl)-N^4-methylpyrimidine-2,4-diamine] gave a Ki of 3 nM. This Ki lies about 2.3-fold lower than the previous one.
As for `CNc1nc(Nc2cc(F)c(-c3cnnn3C)cc2OC)ncc1C(F)(F)F` [Compound 43, N2-(5-fluoro-2-methoxy-4-(1-methyl-1H-1,2,3-triazol-5-yl)phenyl)-N4-methyl-5-(trifluoromethyl) pyrimidine-2,4-diamine], the figure is 2 nM; as for `CNc1nc(Nc2cc(F)c(-c3nnc(C)o3)cc2OC)ncc1C(F)(F)F` [Compound 30, N^2-(5-fluoro-2-methoxy-4-(5-methyl-1,3,4-oxadiazol-2-yl)phenyl)-N^4-methyl-5-(trifluoromethyl) pyrimidine-2,4-diamine], 12 nM.
`CNc1nc(Nc2ccc(-c3ccnn3C)cc2OC)ncc1C(F)(F)F` [Compound 25, N^2-(2-methoxy-4-(1-methyl-1H-pyrazol-5-yl)phenyl)-N^4-methyl-5-(trifluoromethyl) pyrimidine-2,4-diamine] returned a Ki of 1 nM.
In the case of `CNc1nc(Nc2ccc(-c3cnn(C)c3C)cc2OC)ncc1C(F)(F)F` [Compound 39, N2-(4-(1,5-dimethyl-1H-pyrazol-4-yl)-2-methoxyphenyl)-N4-methyl-5-(trifluoromethyl) pyrimidine-2,4-diamine], affinity was put at a Ki of 3 nM.

Source of the values: patent US8791130B2, “Aminopyrimidine derivatives as LRRK2 modulators” (Genentech, Inc., priority 2011, dated 2014).
